Laboratory results as given in patent publication US6537972B1, “Compositions and methods for inhibiting human immunodeficiency virus infection by down-regulating human cellular genes” (Subsidiary No. 3., Inc., priority 1997, dated 2003).

How the values were obtained:
[1] = system: latent HIV provirus in OM10.1 cells; assay: Inhibition of TNF-α induction of latent HIV provirus in OM10.1 cells (CD4 / p24 by flow cytometry); format: cell-based, HIV-1
Description: OM10.1 cells were cultured in RPMI 1640 glucose-free media prior to and during incubation with NADH dehydrogenase inhibitors and TNF-α induction. The inhibitors were added to the cells followed by TNF-α induction 1-2 hours later. The expression of CD4 by the cells was assessed by anti-CD4 antibody staining and flow cytometry after 24 hour incubation at 37° C.

OM10.1 cells = format: cell-based; conditions: human, 24 h, 100 nM
HIV-1SF33 = assay: Infection of freshly isolated human PBLs with HIV-1SF33 in the presence of mofarotene (CD3-gated flow cytometry); format: cell-based; conditions: for % CD4+ in T cell population / % p24+ in CD4+ T population: HIV +, HIV-1SF33 TCID50 1000
Description: (§1) Human peripheral blood leukocytes (PBLs) were isolated using Ficoll-Hypaque density gradient separation. Cells were washed twice and resuspended in RPMI+10% FBS+2% human AB serum+penicillin/streptomycin/glutamine+100 Units/ml of IL-2 at a concentration of 0.5×10^6 cells/ml. PBLs were then activated with phytohemagglutinin at 0.5 μg/ml and placed in a humidified incubator at 37° C./[…]. After two days of activation, 10^6 cells were infected with HIV-1SF33 at TCID50 of 1000, in the presence of various concentrations of mofarotene: 0 μM, 1 μM, 0.5 μM, 0.1 μM, and 0.05 μM. A separate set of uninfected samples under identical concentrations of mofarotene were also maintained as controls. The samples were analyzed by flow cytometry at day 4 and day 6 post infection. The cells were gated for CD3 expression (for T cells). Then the expression of CD4 and viral p24 and CD4 was examined by bivariate dot plot.

[2] = system: human peripheral blood leukocytes (CD3+ T cells); assay: Uninfected human PBLs under mofarotene (control samples, CD3-gated flow cytometry); format: cell-based; conditions: for % CD4+ in T cell population / % p24+ in CD4+ T population: HIV −, human PBLs; for % CD4+ in T cell population: CD3+ gated
Description: as §1

[3] = mofarotene 0.05 μM, human PBLs, day 6
[4] = mofarotene 0.1 μM, human PBLs, day 6
[5] = mofarotene 0.5 μM, human PBLs, day 6
[6] = mofarotene 1.0 μM, human PBLs, day 6
[7] = mofarotene 1.0 μM, human PBLs, day 6, listed as mofarotene

Structure (SMILES): C/C(=C\c1ccc(OCCN2CCOCC2)cc1)c1ccc2c(c1)C(C)(C)CCC2(C)C [Mofarotene]
- cells that retained CD4 expression ([1]; 100 nM, TNF-α-induced OM10.1 cells): 80%
- induction of latent HIV provirus in OM10.1 cells (retention of CD4 expression) ([1]; TNF-α-induced OM10.1 cells, 24 hour incubation, FIG. 25, 26): inhibited HIV-1 induction at even lower concentrations
- intracellular p24 levels in treated cells ([1]; compared with untreated controls): suppressed intracellular p24 levels
- cells that remained viable (OM10.1 cells): greater than 80%
- depletion of CD4+ T cells by HIV infection (HIV-1SF33; 1 μM, day 6, human PBLs): inhibited the depletion of CD4^+ T cells
- % CD4+ in T cell population (HIV-1SF33; [3]): 18%
- % p24+ in CD4+ T population (HIV-1SF33; [3]): 20.5%
- % CD4+ in T cell population (HIV-1SF33; [4]): 28%
- % p24+ in CD4+ T population (HIV-1SF33; [4]): 11.4%
- % CD4+ in T cell population (HIV-1SF33; [5]): 24%
- % p24+ in CD4+ T population (HIV-1SF33; [5]): 12.5%
- % CD4+ in T cell population (HIV-1SF33; [6]): 25%
- % p24+ in CD4+ T population (HIV-1SF33; [6]): 10%
- % CD4+ in T cell population (HIV-1SF33; [7]): ~25%
- % p24+ in CD4+ T population (HIV-1SF33; [7]): 10%
- difference between HIV-infected PBLs with or without mofarotene (HIV-1SF33; day 4 post-infection): little detectable difference
- % CD4+ in T cell population ([2]; mofarotene 0.05 μM, day 6): 33%
- % p24+ in CD4+ T population ([2]; mofarotene 0.05 μM, day 6): 0%
- % CD4+ in T cell population ([2]; mofarotene 0.1 μM, day 6): 34%
- % p24+ in CD4+ T population ([2]; mofarotene 0.1 μM, day 6): 0%
- % CD4+ in T cell population ([2]; mofarotene 0.5 μM, day 6): 34%
- % p24+ in CD4+ T population ([2]; mofarotene 0.5 μM, day 6): 0%
- % CD4+ in T cell population ([2]; mofarotene 1.0 μM, day 6): 36%
- % p24+ in CD4+ T population ([2]; mofarotene 1.0 μM, day 6): 0%
- percentage of CD4+ T cells, compound alone ([2]; day 4, uninfected samples): did not significantly alter
- expression level of CD3 on the cell surface ([2]; day 6): did not alter
- increase of the percentage of CD4+ T cells in uninfected samples, compound alone ([2]; day 6, effect called minimal): up to 4%
